The record followed here is patent US5244917A, “Substituted naphthofurans as anti-inflammatory agents” (The DuPont Merck Pharmaceutical Company, priority 1992, dated 1993).

One experiment has as its system Platelet phospholipase C. Nature of the experiment: Platelet Phospholipase C Assay. In kind it is biochemical. To be noted: 100,000×g supernatant extract of platelet cells; 3H phosphatidylinositol substrate; mantissa only, the power of ten is printed apart; read-out: PLC IC50. As to the method:
Platelet phospholipase C was measured using a 100,000×g supernatant extract of platelet cells as the enzyme preparation. The assay mixture consisted of (in final concentrations): ^3 H myoinositol phosphatidylinositol, ([…], 0.1Ci), CaCl2 (5 mM), Tris acetate buffer (60 mM, pH 4.5-7.5), sodium deoxycholate (2 mg/ml), platelet supernatant protein heated at 100° C. for 5 min (1 mg/ml), all in a total volume of […].
The assay was performed according to the method of Rittenhouse [Rittenhouse, S., Preparation of Selectively Labeled Phosphoinositol and Assay of Phosphoinositol-specific Phospholipase C in Methods in Enzymology, Lands, W. and Smith, W., eds., 86, 3-11 (1982)]. The hydrolysis of substrate to water soluble product was calculated on the basis of the specific activity of the substrate. The activity of the compounds was expressed as the percent inhibition of control (no compound) PLC hydrolysis. […] Arachidonic acid is the precursor of inflammagens such as leukotrienes and prostaglandins which are involved in the mediation of the inflammatory process.

A further experiment relates to A23187-induced ear edema. As to the kind of experiment: A23187 Ear Edema Model (murine ear edema protocol). The format is in vivo, mouse (male CF-1). To be noted: 100 μg/ear topical in acetone; A23187 10 μg/ear; 6 h; 6 mm punch biopsy weight. As to the method: To measure anti-inflammatory activities of the investigational compounds the following standard murine ear edema protocol was used. Edema was induced by the calcium ionophore, A23187 (10 μg/ear) [Marks, F., Furstenberger, G., Kownatzki, E., Prostaglandin E Mediated Stimulation of Mouse Epidermis in vivo by Divalent Cation Ionophore A23187 and by Tumor Promotor TPA, Cancer Res., 41, 696-702 (1981)]. Male CF-1 (Charles River) 18-20 grams were used. Investigational compounds (in acetone at 100 μg/ear) were applied to one ear just prior to application of the inflammagen (A23187). Six hours after A23187 application, edema was determined by comparing the weights of 6 mm punch biopsies from control (solvent) and inflammagen-treated ears. Percent inhibition was calculated using standard equations.

With `COc1ccc2c(c1)c(O)c(Cc1ccccc1)c1c(C#N)c(N)oc12` [Example 11, 2-amino-4-benzyl-3-cyano-5-hydroxy-7-methoxynaphtho[1,2-b]furan], in the experiment with Platelet phospholipase C, the IC50 (commonly the concentration needed to halve the response being measured) came to 190 µM. The compound also returned an A23187 % inhibition in the experiment with A23187-induced ear edema of 82%. The like results for `N#Cc1c(N)oc2c1c(Cc1ccccc1)c(O)c1ccccc12` [Example 1, 2-Amino-4-benzyl-3-cyano-5-hydroxynaphtho[1,2-b]furan] were, in that order, 15 µM and 83%. `COc1ccc2c(O)c(Cc3ccccc3)c3c(C#N)c(N)oc3c2c1` [Example 12, 2-amino-4-benzyl-3-cyano-5-hydroxy-8-methoxynaphtho[1,2-b]furan]: the IC50 in the experiment with Platelet phospholipase C turned out to be 55 µM.

Regarding `N#Cc1c(N)oc2c1c(Cc1ccc(F)cc1)c(O)c1ccccc12` [Example 4, 2-amino-4-(4-fluoro)benzyl-3-cyano-5-hydroxynaphtho[1,2-b]furan], in the experiment with Platelet phospholipase C, the IC50 amounted to 120 µM. In the experiment with A23187-induced ear edema, this compound registered an A23187 % inhibition of 58%. As to `COc1ccc2c(O)c(Cc3ccccc3F)c3c(C#N)c(N)oc3c2c1` [Example 16, 2-amino-4-(2-fluoro)benzyl-3-cyano-5-hydroxy-8-methoxynaphtho[1,2-b]furan], in the experiment with Platelet phospholipase C, the 50% inhibitory concentration (IC50) turned out to be 56 µM.

Turning to `N#Cc1c(N)oc2c1c(Cc1ccccc1F)c(O)c1ccccc12` [Example 2, 2-amino-4-(2-fluoro)benzyl-3-cyano-5-hydroxynaphtho[1,2-b]furan], in the experiment with Platelet phospholipase C, the IC50 came to 26 µM. In addition, in the experiment with A23187-induced ear edema, the A23187 % inhibition is given as 71%.
